Activity calls are given as the source filed them. The rule behind the calls is not given here.
Experiments:
[1] = Half life in Sprague-Dawley rat at 2 mg/kg, iv measured after 24 hrs by LC-MS/MS analysis; format: ADME, organism-based; settings: in vivo
[2] = test system: Receptor-type tyrosine-protein kinase FLT3 (Homo sapiens), P36888 [K663Q]; experiment: Binding affinity to FLT3 K663Q mutant (unknown origin)
[3] = biological target: NUAK family SNF1-like kinase 1 (Homo sapiens, UniProt O60285); experiment: Binding affinity to wild-type human partial length ARK5 (E25 to I332 residues) expressed in bacterial expression system by Kinomescan method relative to control
[4] = test system: Receptor-type tyrosine-protein kinase FLT3 (Homo sapiens), P36888 [D835H]; experiment: Binding affinity to FLT3 D835H mutant (unknown origin)
[5] = biological target: T1, High affinity nerve growth factor receptor (Homo sapiens, UniProt P04629); experiment: Inhibition of TrkA (unknown origin) in mouse BaF3 cells transfected with wild type CD74-NTK1 assessed as inhibition of AKT expression measured after 6 hrs by Western blot assay; format: cell-based; settings: dose 0.3-200 nM
[6] = test system: BaF3; experiment: Antiproliferative activity against mouse BaF3 cells assessed as cell viability measured after 72 hrs by Micro plate reader method; format: functional, cell-based; settings: BaF3, 72 h
[7] = biological target: T2, BDNF/NT-3 growth factors receptor (Homo sapiens, UniProt Q16620); settings: BaF3, dose 0.3-200 nM, time 6.0 hrs
[8] = biological target: T1, High affinity nerve growth factor receptor; experiment: Inhibition of TrkA (unknown origin) in mouse BaF3 cells transfected with wild type CD74-NTK1 assessed as inhibition of PLCgamma 1 expression measured after 6 hrs by Western blot assay; format: cell-based
[9] = test system: BaF3; experiment: Antiproliferative activity against mouse BaF3 cells transfected with wild type CD74-NTRK1 (unknown origin) harbouring G667C mutation assessed as cell viability measured after 72 hrs by Micro plate reader method; format: functional, cell-based; settings: BaF3, 72 h
[10] = biological target: Aurora kinase C (Homo sapiens, UniProt Q9UQB9); experiment: Binding affinity to wild-type human full length AURKC (M1 to S275 residues) expressed in bacterial expression system by Kinomescan method relative to control
[11] = biological target: T2, BDNF/NT-3 growth factors receptor; settings: BaF3, dose 0.3-200 nM, time 6.0 hrs; remark: listed apart in the source
[12] = biological target: Vascular endothelial growth factor receptor 3 (Homo sapiens, UniProt P35916); experiment: Binding affinity to wild-type human partial length FLT4 (E821 to E1196 residues) expressed in bacterial expression system by Kinomescan method relative to control
[13] = biological target: Focal adhesion kinase 1 (Homo sapiens, UniProt Q05397); experiment: Binding affinity to wild-type human partial length FAK (D402 to R696 residues) expressed in bacterial expression system by Kinomescan method relative to control
[14] = test system: BaF3; experiment: Antiproliferative activity against mouse BaF3 cells transfected with wild type ETV6-NTRK3 (unknown origin) harbouring G623R mutation assessed as cell viability measured after 72 hrs by Micro plate reader method; format: functional, cell-based; settings: BaF3, 72 h
[15] = biological target: Phosphorylase b kinase gamma catalytic chain, skeletal muscle/heart isoform (Homo sapiens, UniProt Q16816); experiment: Binding affinity to wild-type human full length PHKG1 (M1 to Y387 residues) expressed in bacterial expression system by Kinomescan method relative to control
[16] = test system: BaF3; experiment: Antiproliferative activity against mouse BaF3 cells transfected with wild type ETV6-NTRK3 (unknown origin) assessed as cell viability measured after 72 hrs by Micro plate reader method; settings: BaF3, 72 h
[17] = test system: Proto-oncogene tyrosine-protein kinase receptor Ret (Homo sapiens), P07949 [V804L]; experiment: Binding affinity to RET V804L mutant (unknown origin)
[18] = biological target: Tyrosine-protein kinase JAK3 (Homo sapiens, UniProt P52333); experiment: Binding affinity to wild-type human partial length JAK3 JH1 catalytic domain (I781 to S1124 residues) expressed in mammalian expression system by Kinomescan method relative to control
[19] = Oral bioavailability in Sprague-Dawley rat at 10 mg/kg measured after 24 hrs by LC-MS/MS analysis; format: ADME, organism-based; settings: in vivo
[20] = biological target: T2, BDNF/NT-3 growth factors receptor; settings: BaF3, dose 0.3-200 nM, time 6.0 hrs; remark: listed apart in the source
[21] = test system: BaF3; experiment: Antiproliferative activity against mouse BaF3 cells transfected with wild type ETV6-NTRK2 (unknown origin) assessed as cell viability measured after 72 hrs by Micro plate reader method; settings: BaF3, 72 h
[22] = test system: BaF3; experiment: Antiproliferative activity against mouse BaF3 cells transfected with wild type CD74-NTRK1 (unknown origin) assessed as cell viability measured after 72 hrs by Micro plate reader method; settings: BaF3, 72 h
[23] = biological target: Proto-oncogene tyrosine-protein kinase receptor Ret (Homo sapiens, UniProt P07949); experiment: Binding affinity to wild-type human partial length RET (E713 to D1014 residues) expressed in bacterial expression system by Kinomescan method relative to control
[24] = biological target: T2, BDNF/NT-3 growth factors receptor; settings: BaF3, dose 0.3-200 nM, time 6.0 hrs; remark: listed apart in the source
[25] = test system: Proto-oncogene tyrosine-protein kinase receptor Ret (Homo sapiens), P07949 [M918T]; experiment: Binding affinity to RET M918T mutant (unknown origin)
[26] = Cmax in Sprague-Dawley rat at 2 mg/kg, iv measured after 24 hrs by LC-MS/MS analysis; format: ADME, organism-based; set-up: route intravenous, time 24 hrs, dose 2 mg/kg; settings: in vivo
[27] = biological target: Muscle, skeletal receptor tyrosine-protein kinase (Homo sapiens, UniProt O15146); experiment: Binding affinity to wild-type human partial length MUSK (M553 to V869 residues) expressed in bacterial expression system by Kinomescan method relative to control
[28] = biological target: Tyrosine-protein kinase JAK1 (Homo sapiens, UniProt P23458); experiment: Binding affinity to wild-type human partial length JAK1 JH1 catalytic domain (V856 to K1154 residues) expressed in bacterial expression system by Kinomescan method relative to control
[29] = biological target: Tyrosine-protein kinase JAK2 (Homo sapiens, UniProt O60674); experiment: Binding affinity to wild-type human partial length JAK2 JH1 catalytic domain (A829 to G1132 residues) expressed in mammalian expression system by Kinomescan method relative to control
[30] = test system: BaF3; experiment: Antiproliferative activity against mouse BaF3 cells transfected with wild type ETV6-NTRK2 (unknown origin) harbouring G639R mutation assessed as cell viability measured after 72 hrs by Micro plate reader method; format: functional, cell-based; settings: BaF3, 72 h
[31] = biological target: Activated CDC42 kinase 1 (Homo sapiens, UniProt Q07912); experiment: Binding affinity to wild-type human partial length TNK2 (S159 to D474 residues) expressed in bacterial expression system by Kinomescan method relative to control
[32] = biological target: T2, BDNF/NT-3 growth factors receptor; settings: BaF3, dose 0.3-200 nM, time 6.0 hrs; remark: listed apart in the source
[33] = Cmax in Sprague-Dawley rat at 10 mg/kg, po measured after 24 hrs by LC-MS/MS analysis; format: ADME, organism-based; set-up: route oral, dose 10 mg/kg, time 24 hrs; settings: in vivo
[34] = test system: Proto-oncogene tyrosine-protein kinase receptor Ret (Homo sapiens), P07949 [V804M]; experiment: Binding affinity to RET V804M mutant (unknown origin)
[35] = Half life in Sprague-Dawley rat at 10 mg/kg, po measured after 24 hrs by LC-MS/MS analysis; format: ADME, organism-based; settings: in vivo
[36] = biological target: T2, BDNF/NT-3 growth factors receptor; settings: BaF3, dose 0.3-200 nM, time 6.0 hrs; remark: listed apart in the source

T2 sequence (Q16620 32-822 limits assumed): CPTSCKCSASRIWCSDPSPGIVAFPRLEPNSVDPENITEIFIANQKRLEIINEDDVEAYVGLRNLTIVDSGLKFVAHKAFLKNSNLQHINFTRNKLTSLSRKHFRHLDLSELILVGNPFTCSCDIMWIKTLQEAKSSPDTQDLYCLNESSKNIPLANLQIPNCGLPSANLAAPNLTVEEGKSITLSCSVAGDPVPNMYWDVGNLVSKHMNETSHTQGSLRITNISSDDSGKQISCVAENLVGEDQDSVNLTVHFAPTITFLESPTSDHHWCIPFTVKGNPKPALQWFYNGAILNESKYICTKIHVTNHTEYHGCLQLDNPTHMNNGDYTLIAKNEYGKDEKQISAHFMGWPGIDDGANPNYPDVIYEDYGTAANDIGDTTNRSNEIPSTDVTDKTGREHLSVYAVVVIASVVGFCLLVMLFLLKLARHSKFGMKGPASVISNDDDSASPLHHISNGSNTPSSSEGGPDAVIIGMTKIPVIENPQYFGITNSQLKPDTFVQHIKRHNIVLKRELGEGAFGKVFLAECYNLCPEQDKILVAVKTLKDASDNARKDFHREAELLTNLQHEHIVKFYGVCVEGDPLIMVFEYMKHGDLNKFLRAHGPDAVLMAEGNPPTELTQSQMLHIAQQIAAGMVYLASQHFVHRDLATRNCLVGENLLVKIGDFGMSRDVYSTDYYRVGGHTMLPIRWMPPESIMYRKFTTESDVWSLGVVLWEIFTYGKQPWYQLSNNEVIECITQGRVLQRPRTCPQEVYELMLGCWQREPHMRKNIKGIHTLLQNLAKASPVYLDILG
T1 sequence (P04629 33-796 limits assumed): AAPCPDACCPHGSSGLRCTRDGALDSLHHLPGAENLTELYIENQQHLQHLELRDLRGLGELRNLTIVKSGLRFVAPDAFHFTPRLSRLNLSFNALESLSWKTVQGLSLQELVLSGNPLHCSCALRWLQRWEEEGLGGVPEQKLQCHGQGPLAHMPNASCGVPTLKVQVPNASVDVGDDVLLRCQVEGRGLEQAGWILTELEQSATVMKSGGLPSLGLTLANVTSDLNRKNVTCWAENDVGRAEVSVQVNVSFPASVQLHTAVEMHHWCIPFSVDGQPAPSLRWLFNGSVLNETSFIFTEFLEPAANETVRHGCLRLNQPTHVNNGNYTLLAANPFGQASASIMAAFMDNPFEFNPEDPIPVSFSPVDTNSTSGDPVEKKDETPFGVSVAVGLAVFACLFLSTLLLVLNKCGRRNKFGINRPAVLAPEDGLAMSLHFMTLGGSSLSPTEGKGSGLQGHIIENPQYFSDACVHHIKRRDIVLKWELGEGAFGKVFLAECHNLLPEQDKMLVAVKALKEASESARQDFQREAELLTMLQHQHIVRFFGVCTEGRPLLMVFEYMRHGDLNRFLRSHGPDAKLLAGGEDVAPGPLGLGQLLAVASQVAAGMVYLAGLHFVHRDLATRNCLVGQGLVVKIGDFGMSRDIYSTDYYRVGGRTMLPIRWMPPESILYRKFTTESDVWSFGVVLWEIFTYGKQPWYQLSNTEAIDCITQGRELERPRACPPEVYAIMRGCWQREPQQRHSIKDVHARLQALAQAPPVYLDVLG
Activated CDC42 kinase 1, sequence (Q07912 whole entry, the tested form may be a part): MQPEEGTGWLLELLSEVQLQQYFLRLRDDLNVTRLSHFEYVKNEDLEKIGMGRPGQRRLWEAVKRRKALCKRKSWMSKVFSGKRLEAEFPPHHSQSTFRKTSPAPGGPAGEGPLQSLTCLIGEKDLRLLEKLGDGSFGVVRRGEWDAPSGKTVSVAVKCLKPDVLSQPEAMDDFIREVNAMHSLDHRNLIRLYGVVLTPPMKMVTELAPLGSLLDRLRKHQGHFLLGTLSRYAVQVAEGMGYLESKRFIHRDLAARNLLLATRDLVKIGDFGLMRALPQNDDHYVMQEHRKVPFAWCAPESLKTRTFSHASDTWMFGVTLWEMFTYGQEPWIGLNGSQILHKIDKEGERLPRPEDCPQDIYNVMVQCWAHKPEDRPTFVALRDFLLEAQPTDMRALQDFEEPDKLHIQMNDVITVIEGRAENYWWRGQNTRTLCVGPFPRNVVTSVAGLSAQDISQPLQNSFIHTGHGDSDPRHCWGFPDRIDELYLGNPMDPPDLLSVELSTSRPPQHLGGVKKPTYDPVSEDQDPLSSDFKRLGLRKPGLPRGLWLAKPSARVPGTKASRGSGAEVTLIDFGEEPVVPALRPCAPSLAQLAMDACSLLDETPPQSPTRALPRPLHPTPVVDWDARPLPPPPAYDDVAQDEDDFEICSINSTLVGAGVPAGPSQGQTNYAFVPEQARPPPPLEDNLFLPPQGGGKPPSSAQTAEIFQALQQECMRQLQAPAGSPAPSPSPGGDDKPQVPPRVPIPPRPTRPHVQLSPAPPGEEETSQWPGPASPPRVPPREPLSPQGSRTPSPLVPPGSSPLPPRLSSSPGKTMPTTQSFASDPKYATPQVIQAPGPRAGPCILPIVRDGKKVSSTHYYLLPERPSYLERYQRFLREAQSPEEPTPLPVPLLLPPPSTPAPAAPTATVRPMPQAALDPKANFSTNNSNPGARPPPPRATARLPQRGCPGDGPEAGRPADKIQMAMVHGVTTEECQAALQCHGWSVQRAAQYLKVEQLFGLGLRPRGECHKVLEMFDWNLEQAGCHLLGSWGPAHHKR
Phosphorylase b kinase gamma catalytic chain, skeletal muscle/heart isoform, sequence (Q16816 whole entry, the tested form may be a part, canonical isoform): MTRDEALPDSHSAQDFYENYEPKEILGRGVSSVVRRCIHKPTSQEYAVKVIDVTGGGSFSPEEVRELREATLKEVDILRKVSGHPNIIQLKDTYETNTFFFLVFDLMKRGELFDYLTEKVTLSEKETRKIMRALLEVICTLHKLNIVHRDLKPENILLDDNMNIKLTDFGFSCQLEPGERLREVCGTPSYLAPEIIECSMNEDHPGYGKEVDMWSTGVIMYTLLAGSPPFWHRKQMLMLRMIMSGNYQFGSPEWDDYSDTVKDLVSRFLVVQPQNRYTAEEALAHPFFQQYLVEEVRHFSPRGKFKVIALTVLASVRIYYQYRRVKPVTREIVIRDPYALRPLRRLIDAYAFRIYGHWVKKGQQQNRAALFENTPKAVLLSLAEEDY
Proto-oncogene tyrosine-protein kinase receptor Ret (Homo sapiens), P07949 [V804L], sequence (P07949 whole entry V804L, the tested form may be a part): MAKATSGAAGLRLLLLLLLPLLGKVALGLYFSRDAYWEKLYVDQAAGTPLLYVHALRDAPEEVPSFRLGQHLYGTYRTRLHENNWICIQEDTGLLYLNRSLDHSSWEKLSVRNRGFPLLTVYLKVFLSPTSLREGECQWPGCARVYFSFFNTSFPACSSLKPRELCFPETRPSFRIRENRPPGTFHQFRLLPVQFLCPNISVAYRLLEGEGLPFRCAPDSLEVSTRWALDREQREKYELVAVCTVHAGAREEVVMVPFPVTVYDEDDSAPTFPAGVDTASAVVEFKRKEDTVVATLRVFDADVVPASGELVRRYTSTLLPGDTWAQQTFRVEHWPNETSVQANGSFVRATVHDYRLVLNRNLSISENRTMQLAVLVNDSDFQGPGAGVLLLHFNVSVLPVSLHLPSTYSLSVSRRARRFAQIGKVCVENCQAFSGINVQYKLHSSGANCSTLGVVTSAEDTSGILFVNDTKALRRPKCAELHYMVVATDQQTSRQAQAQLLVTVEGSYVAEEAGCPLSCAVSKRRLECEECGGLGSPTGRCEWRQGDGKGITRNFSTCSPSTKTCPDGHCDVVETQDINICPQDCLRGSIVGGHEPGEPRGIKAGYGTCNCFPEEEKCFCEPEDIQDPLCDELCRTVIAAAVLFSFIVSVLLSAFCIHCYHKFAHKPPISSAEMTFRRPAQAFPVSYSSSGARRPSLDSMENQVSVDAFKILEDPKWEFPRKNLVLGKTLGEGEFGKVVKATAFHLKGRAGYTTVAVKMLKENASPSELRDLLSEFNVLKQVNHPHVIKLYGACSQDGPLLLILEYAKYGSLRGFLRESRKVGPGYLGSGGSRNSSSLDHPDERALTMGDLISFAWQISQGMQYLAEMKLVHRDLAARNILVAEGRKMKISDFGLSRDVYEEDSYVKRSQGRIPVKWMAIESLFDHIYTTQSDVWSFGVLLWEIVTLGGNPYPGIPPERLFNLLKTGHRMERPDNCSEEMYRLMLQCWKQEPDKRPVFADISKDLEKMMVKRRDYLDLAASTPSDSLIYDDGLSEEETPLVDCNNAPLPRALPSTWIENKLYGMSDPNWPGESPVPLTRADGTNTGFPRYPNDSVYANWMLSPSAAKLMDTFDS
Muscle, skeletal receptor tyrosine-protein kinase, sequence (O15146 whole entry, the tested form may be a part): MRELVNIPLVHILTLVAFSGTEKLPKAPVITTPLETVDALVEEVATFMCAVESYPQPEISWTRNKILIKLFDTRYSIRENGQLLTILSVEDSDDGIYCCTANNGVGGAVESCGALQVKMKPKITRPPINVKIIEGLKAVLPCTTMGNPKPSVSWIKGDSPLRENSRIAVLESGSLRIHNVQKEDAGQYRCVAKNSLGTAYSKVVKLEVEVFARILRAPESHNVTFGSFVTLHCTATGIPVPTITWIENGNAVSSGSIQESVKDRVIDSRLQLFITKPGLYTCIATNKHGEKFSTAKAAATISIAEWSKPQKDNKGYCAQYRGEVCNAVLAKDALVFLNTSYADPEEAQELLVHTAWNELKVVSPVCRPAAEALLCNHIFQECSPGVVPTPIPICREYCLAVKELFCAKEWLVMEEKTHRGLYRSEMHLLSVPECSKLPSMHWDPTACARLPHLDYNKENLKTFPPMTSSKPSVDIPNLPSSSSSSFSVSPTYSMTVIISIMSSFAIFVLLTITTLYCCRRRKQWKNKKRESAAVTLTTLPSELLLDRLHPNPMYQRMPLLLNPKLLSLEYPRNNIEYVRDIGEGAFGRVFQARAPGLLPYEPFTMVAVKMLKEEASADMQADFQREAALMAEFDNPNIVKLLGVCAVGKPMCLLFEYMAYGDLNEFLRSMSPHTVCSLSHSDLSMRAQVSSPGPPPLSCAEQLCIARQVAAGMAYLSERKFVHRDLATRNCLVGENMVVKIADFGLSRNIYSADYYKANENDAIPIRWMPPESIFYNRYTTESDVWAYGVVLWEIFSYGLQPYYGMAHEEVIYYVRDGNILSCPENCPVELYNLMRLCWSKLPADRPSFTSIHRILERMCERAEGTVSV

In the case of C[C@@H](Nc1ccc2[nH]nc(/C=C/c3ccccn3)c2c1)c1cc(F)cc(F)c1, the half-life [1] is reported as 1.39 h, the inhibition [2] is reported as “Active” and the Kd [3] is reported as 140 nM. For the same molecule, the inhibition [4] was “Active”, the inhibition [5] was “Active” and the IC50 [6] was 3120 nM. The inhibition [7] was “Active”, the inhibition [8] was “Active” and the IC50 [9] was 31 nM. The Kd [10] was 570 nM, the inhibition [11] was “Active” and the Kd [12] was 45 nM. For the same molecule, the Kd [13] was 200 nM, the IC50 [14] was 243 nM and the Kd [15] was 12 nM. For the same molecule, the IC50 [16] was 9 nM, the inhibition [17] was “Active” and the Kd [18] was 170 nM. For the same molecule, the bioavailability [19] was 8.79%, the inhibition [20] was “Active” and the IC50 [21] was 22 nM. For the same molecule, the IC50 [22] was 15 nM, the Kd [23] was 55 nM and the inhibition [24] was “Active”. The inhibition [25] was “Active”, the Cmax [26] was 6.77 µM and the Kd [27] was 110 nM. It also gave a Kd [28] of 130 nM, a Kd [29] of 5.5 nM and an IC50 [30] of 503 nM. The Kd [31] was 21 nM, the inhibition [32] was “Active” and the Cmax [33] was 0.36 µM. The inhibition [34] was “Active”, the half-life [35] was 1.13 h and the inhibition [36] was “Active”.

— ChEMBL document CHEMBL4765391, “Design, synthesis, and Structure-Activity Relationships (SAR) of 3-vinylindazole derivatives as new selective tropomyosin receptor kinases (Trk) inhibitors” (Eur J Med Chem, 2020)
